# Results published in US8362000B2, “Azetidinyl diamides as monoacylglycerol lipase inhibitors” (Janssen Pharmaceutica NV, priority 2009, dated 2013).
# Numbering of substitutions follows the chain as printed. Like-named read-outs stand apart in the source and are kept apart here.
# Legend:
# MGL = biological target: T1, MGL (Rattus norvegicus, UniProt Q8R431); assay: 2-AG accumulation assay in rat brain homogenate; type: biochemical; conditions: rat brain homogenate, 2-AG accumulation as percent of vehicle; for 2-AG accumulation, % of vehicle control at 1 µM: compound 1 μM, read-out: Rat Brain 2AG % VehCntrl (%) @ 1 μM
# T1 construct: one g rat brain was homogenized using a Polytron homogenizer; from tissue; host or cells: rat brain homogenate
# T1 sequence (Q8R431 1-303): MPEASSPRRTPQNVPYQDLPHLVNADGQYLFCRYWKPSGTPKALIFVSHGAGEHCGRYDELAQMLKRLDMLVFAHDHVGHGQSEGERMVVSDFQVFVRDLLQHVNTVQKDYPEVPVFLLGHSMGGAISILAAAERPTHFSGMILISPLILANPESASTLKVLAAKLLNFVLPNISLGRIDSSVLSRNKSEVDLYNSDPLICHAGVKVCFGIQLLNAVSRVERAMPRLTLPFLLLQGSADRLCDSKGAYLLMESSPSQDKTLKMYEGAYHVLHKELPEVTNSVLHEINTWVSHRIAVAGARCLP
# mutant MGL = biological target: T2, mutant MGL (Homo sapiens, UniProt Q99685, L169S/L176S); assay: MGL ThermoFluor assay - mutant; type: binding
# T2 sequence (Q99685 1-303 L169S/L176S): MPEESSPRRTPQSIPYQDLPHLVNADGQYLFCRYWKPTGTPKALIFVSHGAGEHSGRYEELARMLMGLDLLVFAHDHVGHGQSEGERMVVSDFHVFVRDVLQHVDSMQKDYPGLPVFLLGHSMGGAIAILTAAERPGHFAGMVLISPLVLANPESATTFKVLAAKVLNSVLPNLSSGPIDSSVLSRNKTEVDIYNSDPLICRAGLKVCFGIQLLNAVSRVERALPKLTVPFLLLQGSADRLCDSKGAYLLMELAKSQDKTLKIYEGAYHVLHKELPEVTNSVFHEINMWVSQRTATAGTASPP
# [1] = biological target: T3, purified wild type MGL (wt-MGLL 6H-11-313) (Homo sapiens, UniProt Q99685)
# T3 sequence (Q99685 1-303): T2 sequence (Q99685 1-303 L169S/L176S) with S169L, S176L
# [2] = ThermoFluor thermal stability binding assay, read-out: MGL mutant ThermoFluor Kd
# [3] = ThermoFluor concentration-response, read-out: MGL mutant ThermoFluor Kd
# [4] = ThermoFluor, compound concentration measured by qNMR, read-out: MGL mutant ThermoFluor qKd (using qNMR conc.)
"2-AG accumulation, % of vehicle control at 1 µM (MGL) [%]",Kd (mutant MGL; [2]) [µM],IC50 [1] [nM],Kd (mutant MGL; [3]) [µM],"2-AG accumulation, % of vehicle control at 0.1 µM (MGL; compound 0.1 μM, read-out: Rat Brain 2AG % VehCntrl (%) @ 0.1 μM) [%]","2-AG accumulation, % of vehicle control at 10 µM (MGL; compound 10 μM, read-out: Rat Brain 2AG % VehCntrl (%) @ 10 μM) [%]",Kd (mutant MGL; [4]) [µM],"Kd (mutant MGL; ThermoFluor, compound concentration measured by qNMR, read-out: MGL mutant ThermoFluor qKd (μM) (using qNMR conc.)) [µM]",Compound
126,0.008,99,,,,,,O=C(c1nccs1)N1CCN(C2CN(C(=O)c3cccc4oc(-c5ccccc5)nc34)C2)CC1 [Cpd 1190]
231,,151,0.5,,,,,O=C(c1nccs1)N1CCN(C2CN(C(=O)c3cc(-c4ccccc4)ccc3Cl)C2)CC1 [Cpd 1200]
475,,151,0.179,,,,,"O=C(c1ccc2c(ccn2-c2ncccn2)c1)N1CC(N2CCN(C(=O)c3cscn3)CC2)C1 [Cpd 1201, 1-Pyrimidin-2-yl-5-({3-[4-(1,3-thiazol-4-ylcarbonyl)piperazin-1-yl]azetidin-1-yl}carbonyl)-1H-indole]"
212,,190,1,,,,,O=C(c1nccs1)N1CCN(C2CN(C(=O)c3cc(-c4ccccc4)ccc3F)C2)CC1 [Cpd 1208]
226,,356,0.394,,,,,Cc1c(C(=O)N2CC(N3CCN(C(=O)c4nccs4)CC3)C2)cccc1-c1ccccc1 [Cpd 1234]
100,,360,0.124,,,,,"O=C(c1ccc(-c2ccccc2)cc1)N1CCN(C2CN(C(=O)c3ccns3)C2)CC1 [Cpd 1235, 1-(Biphenyl-4-ylcarbonyl)-4-[1-(isothiazol-5-ylcarbonyl)azetidin-3-yl]piperazine]"
167,,390,0.031,,,,,"O=C(c1ccc(-c2ccccc2)cc1)N1CCN(C2CN(C(=O)c3nccs3)C2)CC1 [Cpd 1236, 1-(Biphenyl-4-ylcarbonyl)-4-[1-(1,3-thiazol-2-ylcarbonyl)azetidin-3-yl]piperazine]"
190,,725,0.088,110,407,,,COc1cc(C(=O)N2CC(N3CCN(C(=O)c4cscn4)CC3)C2)ccc1-c1ccccc1 [Cpd 1253]
187,0.1,765,,,,,,O=C(c1cscn1)N1CCN(C2CN(C(=O)c3cccc4nc(-c5cccc(F)c5)oc34)C2)CC1 [Cpd 1254]
159,,847,0.667,,,,,O=C(c1cc(-c2ccccc2)cc(C(F)(F)F)c1)N1CC(N2CCN(C(=O)c3cscn3)CC2)C1 [Cpd 1259]
192,,1050,0.66,,,,,COc1ccc(C(=O)N2CC(N3CCN(C(=O)c4cscn4)CC3)C2)cc1-c1ccccc1 [Cpd 1265]
128,0.2,2070,,,,,,O=C(c1cscn1)N1CCN(C2CN(C(=O)c3cccc4nc(-c5ccc(F)cc5)oc34)C2)CC1 [Cpd 1282]
62,,2170,0.523,,,,,"O=C(c1ccc(-c2ccccc2)cc1)N1CCN(C2CN(C(=O)c3ncco3)C2)CC1 [Cpd 1283, 1-(Biphenyl-4-ylcarbonyl)-4-[1-(1,3-oxazol-2-ylcarbonyl)azetidin-3-yl]piperazine]"
963,,< 5,,,,0.008,,"O=C(c1ccc2c(ccn2-c2ccc(C(F)(F)F)nc2)c1)N1CC(N2CCN(C(=O)c3nccs3)CC2)C1 [Cpd 1312, 5-({3-[4-(1,3-Thiazol-2-ylcarbonyl)piperazin-1-yl]azetidin-1-yl}carbonyl)-1-[6-(trifluoromethyl)pyridin-3-yl]-1H-indole]"
851,,< 5,0.003,,,0.001,,"O=C(c1ccc2c(ccn2-c2ccc(Cl)cn2)c1)N1CC(N2CCN(C(=O)c3nccs3)CC2)C1 [Cpd 1313, 1-(5-Chloropyridin-2-yl)-5-({3-[4-(1,3-thiazol-2-ylcarbonyl)piperazin-1-yl]azetidin-1-yl}carbonyl)-1H-indole]"
486,,< 5,0.002,,,,,"O=C(c1nccs1)N1CCN(C2CN(C(=O)c3sc4ccc(-c5ccccc5)cc4c3F)C2)CC1 [Cpd 1315, 1-{1-[(3-Fluoro-5-phenyl-1-benzothiophen-2-yl)carbonyl]azetidin-3-yl}-4-(1,3-thiazol-2-ylcarbonyl)piperazine]"

"2-AG accumulation, % of vehicle control at 1 µM (MGL) [%]",Kd (mutant MGL; [2]) [µM],IC50 [1] [nM],Kd (mutant MGL; [3]) [µM],"2-AG accumulation, % of vehicle control at 0.1 µM (MGL; compound 0.1 μM, read-out: Rat Brain 2AG % VehCntrl (%) @ 0.1 μM) [%]","2-AG accumulation, % of vehicle control at 10 µM (MGL; compound 10 μM, read-out: Rat Brain 2AG % VehCntrl (%) @ 10 μM) [%]",Kd (mutant MGL; [4]) [µM],"Kd (mutant MGL; ThermoFluor, compound concentration measured by qNMR, read-out: MGL mutant ThermoFluor qKd (μM) (using qNMR conc.)) [µM]",Compound
602,,< 5,0.002,,,,,O=C(c1ccc2c(-c3ccccc3)c[nH]c2c1)N1CC(N2CCN(C(=O)c3nccs3)CC2)C1 [Cpd 1316]
722,,< 5,0.002,,,,,"O=C(c1ccc2c(-c3ccc(F)cc3)c[nH]c2c1)N1CC(N2CCN(C(=O)c3nccs3)CC2)C1 [Cpd 1317, 3-(4-Fluorophenyl)-6-({3-[4-(1,3-thiazol-2-ylcarbonyl)piperazin-1-yl]azetidin-1-yl}carbonyl)-1H-indole]"
823,,< 5,,,,,0.015,"O=C(c1nccs1)N1CCN(C2CN(C(=O)c3cccc4c3ccn4-c3ccc(F)cc3)C2)CC1 [Cpd 1320, 1-(4-Fluorophenyl)-4-({3-[4-(1,3-thiazol-2-ylcarbonyl)piperazin-1-yl]azetidin-1-yl}carbonyl)-1H-indole]"
457,,< 5,0.002,,,,,"Cc1cc(C(=O)N2CC(N3CCN(C(=O)c4nccs4)CC3)C2)ccc1-c1ccccc1 [Cpd 1322, 1-{1-[(2-Methylbiphenyl-4-yl)carbonyl]azetidin-3-yl}-4-(1,3-thiazol-2-ylcarbonyl)piperazine]"
297,,< 5,0.004,,,,,O=C(c1nccs1)N1CCN(C2CN(C(=O)c3ccc(-c4ccccc4)cc3Cl)C2)CC1 [Cpd 1323]
575,0.006,< 5,,,,,,O=C(c1ccc(-c2cccc(C(F)(F)F)c2)cc1)N1CC(N2CCN(C(=O)c3ccc[nH]3)CC2)C1 [Cpd 1325]
944,,< 5,0.004,,,,,O=C(c1ccc(-c2nc(-c3ccccc3)cs2)cc1)N1CC(N2CCN(C(=O)c3nccs3)CC2)C1 [Cpd 1326]
966,,< 5,0.005,,,,,O=C(c1ccc(-n2nc3c(c2-c2ccc(Cl)cc2)CCCC3)cc1)N1CC(N2CCN(C(=O)c3nccs3)CC2)C1 [Cpd 1327]
834,,< 5,0.006,,,,,O=C(c1ccc(-c2nc(-c3ccc(Cl)cc3Cl)cs2)cc1)N1CC(N2CCN(C(=O)c3nccs3)CC2)C1 [Cpd 1329]
589,,< 5,0.002,,,0.005,,O=C(c1ccc(-n2nc3c(c2-c2cccc(C(F)(F)F)c2)CCC3)cc1)N1CC(N2CCN(C(=O)c3nccs3)CC2)C1 [Cpd 1330]
803,,< 5,,,,0.01,,O=C(c1ccc(-c2nc(-c3ccc(Cl)c(Cl)c3)cs2)cc1)N1CC(N2CCN(C(=O)c3nccs3)CC2)C1 [Cpd 1331]
824,,< 5,,,,0.04,,O=C(c1ccc2cc(-c3ccccc3)[nH]c2c1)N1CC(N2CCN(C(=O)c3nccs3)CC2)C1 [Cpd 1333]
574,,< 5,0.013,,,,,"O=C(c1ccc2c(ccn2-c2ccc(C(F)(F)F)cc2)c1)N1CC(N2CCN(C(=O)c3ccc[nH]3)CC2)C1 [Cpd 1339, 5-({3-[4-(1H-Pyrrol-2-ylcarbonyl)piperazin-1-yl]azetidin-1-yl}carbonyl)-1-[4-(trifluoromethyl)phenyl]-1H-indole]"
346,0.136,< 5,,,,,,O=C(c1cc2cc(-c3ccccc3)ccc2o1)N1CC(N2CCN(C(=O)c3nccs3)CC2)C1 [Cpd 1342]
838,0.077,< 5,,,,,,O=C(c1cc2cc(-c3cccc(C(F)(F)F)c3)ccc2o1)N1CC(N2CCN(C(=O)c3nccs3)CC2)C1 [Cpd 1343]
